According to ChEMBL document CHEMBL4483862, “Open-source discovery of chemical leads for next-generation chemoprotective antimalarials” (2018):

Test system: Plasmodium berghei
Assay: Luciferase/luciferin-expressing antifolate-resistant parasites were used to infect a culture of HepG2 cells that were pre-incubated with compounds. Infected hepatocytes emit light due to the luciferase reaction. Assay results are presented as the percent inhibition of light emission compared to control. […]
Assay type: functional
Settings: sporozoite; for IC90: read-out: LUCIFERASE INFECTION ASSAY - IC90
[1] = read-out: LUCIFERASE INFECTION ASSAY - IC50

SMILES	IC90 [µM]	IC50 [1] [µM]	also measured
CC(C)NC(=O)Nc1ccc(OCc2ncc(C(F)(F)F)cc2Cl)cc1	> 8.51	–	IC50 (FFLUC_HILL_SLOPE 8.07, FFLUC_R_SQUARED 0.113, HEPG2TOX_HILL_SLOPE 6.87, HEPG2TOX_R_SQUARED 0.428, PBLUC_HILL_SLOPE 0.555, PBLUC_R_SQUARED 0.618, read-out: LUCIFERASE INFECTION ASSAY - IC50): 1.56 µM
Cc1cc(C(=O)CN(Cc2ccco2)S(=O)(=O)/C=C/c2ccccc2)c(C)n1C	> 10	–	IC50 (HEPG2TOX_HILL_SLOPE 3.54, HEPG2TOX_R_SQUARED 0.932, PBLUC_HILL_SLOPE 9.57, PBLUC_R_SQUARED 0.198, read-out: LUCIFERASE INFECTION ASSAY - IC50): 8.84 µM
N#CCCN(C(=O)COC(=O)c1ccc2c(c1)NC(=O)CS2)c1ccc2c(c1)OCCO2	> 10	> 10	–
O=C(Nc1nc2ccc(Oc3ccccc3)cc2s1)c1ccc(S(=O)(=O)C(F)F)cc1	> 10	–	IC50 (HEPG2TOX_HILL_SLOPE 10.3, HEPG2TOX_R_SQUARED 0.512, read-out: LUCIFERASE INFECTION ASSAY - IC50): > 10 µM
O=c1c2c3c(sc2nc(SCc2cc(=O)n4ccsc4n2)n1-c1ccccc1C(F)(F)F)CCCCC3	> 10	–	IC50 (FFLUC_HILL_SLOPE 12.2, FFLUC_R_SQUARED 0.743, read-out: LUCIFERASE INFECTION ASSAY - IC50): > 10 µM
CNC(=O)c1ccc(/C=C/C(=O)c2ccc3cccc4c3c2CC4)cc1	> 10	> 10	–
CC(C)N1CCN(c2ccc(-c3cn4c(-c5ccccc5)cnc4cn3)cc2)CC1	> 8.3	–	IC50 (PBLUC_HILL_SLOPE 2.04, PBLUC_R_SQUARED 0.328, read-out: LUCIFERASE INFECTION ASSAY - IC50): 5.96 µM
CCc1c(C(=O)Nc2nc(C)cs2)cnn1-c1cccc(Cl)c1	1.14	–	IC50 (HEPG2TOX_HILL_SLOPE 7.81, HEPG2TOX_R_SQUARED 0.827, PBLUC_HILL_SLOPE 1.59, PBLUC_R_SQUARED 0.7, read-out: LUCIFERASE INFECTION ASSAY - IC50): 0.286 µM
CCN(CC(=O)Nc1nnc(-c2ccccc2)o1)Cc1ccc(Br)s1	3.99	–	IC50 (PBLUC_HILL_SLOPE 15.5, PBLUC_R_SQUARED 0.469, read-out: LUCIFERASE INFECTION ASSAY - IC50): 3.46 µM
O=C(Nc1cc(S(=O)(=O)c2ccccc2)cs1)c1ccc(Cl)cc1	5.49	–	IC50 (HEPG2TOX_HILL_SLOPE 7.57, HEPG2TOX_R_SQUARED 0.801, PBLUC_HILL_SLOPE 3.36, PBLUC_R_SQUARED 0.445, read-out: LUCIFERASE INFECTION ASSAY - IC50): 2.85 µM
O=C1NCC(CSc2nc3cc(Cl)ccc3c(=O)n2C2CCCCC2)O1 (stereo not given)	7.92	–	IC50 (PBLUC_HILL_SLOPE 3.9, PBLUC_R_SQUARED 0.536, read-out: LUCIFERASE INFECTION ASSAY - IC50): 4.51 µM
Cc1nc(Oc2ccc3ccc(=O)oc3c2)c2c3c(sc2n1)CCCCC3	> 10	–	IC50 (PBLUC_HILL_SLOPE 3.34, 13.2, PBLUC_R_SQUARED 0.778, 0.263, read-out: LUCIFERASE INFECTION ASSAY - IC50): 7.83 µM
Cc1nc2ccccc2c(=O)n1-c1ccc(C(=O)NCCCc2ccccc2)cc1	> 10	> 10	–
Cc1ccc(-c2nn(-c3ccccc3)cc2/C=C(/C(=O)c2ccccc2)c2nc3ccccc3s2)o1	> 10	–	IC50 (FFLUC_HILL_SLOPE 2.3, FFLUC_R_SQUARED 0.652, PBLUC_HILL_SLOPE 2.05, PBLUC_R_SQUARED 0.091, read-out: LUCIFERASE INFECTION ASSAY - IC50): > 10 µM
Cc1ccccc1Nc1nc(N)nc(CSc2nc(=O)c3c(-c4cccs4)csc3[nH]2)n1	> 10	> 10	–
CC(C)Cn1c(SC2CCOC2=O)nc2cc(Cl)ccc2c1=O (stereo not given)	> 10	> 10	–
Fc1ccc(CNc2ncnc3ccc(Cl)cc23)cc1	9.51	–	IC50 (HEPG2TOX_HILL_SLOPE 10.6, HEPG2TOX_R_SQUARED 0.947, PBLUC_HILL_SLOPE 2.4, PBLUC_R_SQUARED 0.787, read-out: LUCIFERASE INFECTION ASSAY - IC50): 3.81 µM
Cc1ccc(S(=O)(=O)N(C)c2ccc(OCc3coc(-c4cccs4)n3)cc2)cc1	> 10	> 10	–
O=C(Nc1ccccc1Nc1cc(-c2ccccc2)nn1-c1ccccc1)c1ccc([N+](=O)[O-])cc1	> 10	–	IC50 (PBLUC_HILL_SLOPE 1.78, PBLUC_R_SQUARED 0.355, read-out: LUCIFERASE INFECTION ASSAY - IC50): 8.66 µM
CS(=O)(=O)c1ccc(S(=O)(=O)Oc2ccc(C3CCCCC3)cc2)cc1	> 10	–	IC50 (HEPG2TOX_HILL_SLOPE 0.47, HEPG2TOX_R_SQUARED 0.776, PBLUC_HILL_SLOPE 1, PBLUC_R_SQUARED 0.337, read-out: LUCIFERASE INFECTION ASSAY - IC50): 6.62 µM

SMILES	IC90 [µM]	IC50 [1] [µM]	also measured
CN1C(=O)N(Cc2ccc3ccccc3c2)C(=O)C12CCN(Cc1cnn(-c3ccc(F)cc3)c1)CC2	2.54	–	IC50 (HEPG2TOX_HILL_SLOPE 1.74, HEPG2TOX_R_SQUARED 0.906, PBLUC_HILL_SLOPE 10.4, PBLUC_R_SQUARED 0.489, read-out: LUCIFERASE INFECTION ASSAY - IC50): 2.06 µM
c1ccc(-c2cc3c(NCc4ccccc4CN4CCOCC4)ncnc3s2)cc1	> 10	> 10	–
CCCCCC(/C=N/NC(=O)c1ccccc1O)=C\c1ccccc1	> 10	> 10	–
S=C(Nc1ccc(C2=NCCO2)cc1)Nc1ccc(Cl)c(Cl)c1	> 9.01	> 9.01	–
Cn1c(-c2cccnc2)cc2cnc(Nc3ccc(OC(F)(F)F)cc3)cc21	9.47	–	IC50 (HEPG2TOX_HILL_SLOPE 2.53, HEPG2TOX_R_SQUARED 0.903, PBLUC_HILL_SLOPE 4.19, PBLUC_R_SQUARED 0.443, read-out: LUCIFERASE INFECTION ASSAY - IC50): 5.61 µM
O=[N+]([O-])c1ccc(C2Nc3ccc(F)cc3N2)s1 (stereo not given)	6.65	–	IC50 (PBLUC_HILL_SLOPE 4.41, PBLUC_R_SQUARED 0.496, read-out: LUCIFERASE INFECTION ASSAY - IC50): 4.04 µM
FC(F)(F)Oc1cccc(-c2cnc3cnc(-c4cccnc4)cn23)c1	> 9.26	–	IC50 (PBLUC_HILL_SLOPE 14.8, PBLUC_R_SQUARED 0.205, read-out: LUCIFERASE INFECTION ASSAY - IC50): 8.62 µM
N=C(N)NN=C1CCCCCCCCCCC1	> 12	–	IC50 (HEPG2TOX_HILL_SLOPE 5.24, 2.64, HEPG2TOX_R_SQUARED 0.916, 0.913, PBLUC_HILL_SLOPE 15.5, 3.20, PBLUC_R_SQUARED 0.175, 0.492, read-out: LUCIFERASE INFECTION ASSAY - IC50): 11.7 µM
Cc1nc(NCc2ccc(Cl)cc2)c2cc(-c3ccccc3)sc2n1	> 10	–	IC50 (HEPG2TOX_HILL_SLOPE 0.0996, HEPG2TOX_R_SQUARED 0.0438, PBLUC_HILL_SLOPE 16.2, PBLUC_R_SQUARED 0.0193, read-out: LUCIFERASE INFECTION ASSAY - IC50): 9.43 µM
Cc1cccc(-c2nc3c(c(SCCN4CCCC4)n2)COC(C)(C)C3)c1	> 8.6	> 8.6	–
N=C(NS(=O)(=O)c1ccc(Cl)c(Cl)c1)c1ccc(Cl)cc1	> 9.07	> 9.07	–
COc1cc(OC)cc(C(=O)Nc2nc3ccc(C)cn3c2C(=O)NC2CCCC2)c1	6.19	–	IC50 (HEPG2TOX_HILL_SLOPE 8.61, HEPG2TOX_R_SQUARED 0.625, PBLUC_HILL_SLOPE 3.28, PBLUC_R_SQUARED 0.589, read-out: LUCIFERASE INFECTION ASSAY - IC50): 3.16 µM
CCc1cc(=O)n2nc(Cc3ccccc3)c(-c3ccccc3)c2[nH]1	> 10	–	IC50 (HEPG2TOX_HILL_SLOPE 8.68, HEPG2TOX_R_SQUARED 0.27, PBLUC_HILL_SLOPE 11.4, PBLUC_R_SQUARED 0.149, read-out: LUCIFERASE INFECTION ASSAY - IC50): 8.75 µM
CC(=O)Nc1cccc(-c2ccc3ncc(-c4ccccc4)n3n2)c1	> 10	–	IC50 (HEPG2TOX_HILL_SLOPE 0.716, HEPG2TOX_R_SQUARED 0.978, PBLUC_HILL_SLOPE 1, PBLUC_R_SQUARED 0.535, read-out: LUCIFERASE INFECTION ASSAY - IC50): 3.87 µM
O=C(Nc1nc2ccccc2[nH]1)c1ccc(Cl)c(S(=O)(=O)N2CCc3ccccc32)c1	> 10	–	IC50 (HEPG2TOX_HILL_SLOPE 9.78, HEPG2TOX_R_SQUARED 0.833, PBLUC_HILL_SLOPE 14, PBLUC_R_SQUARED 0.17, read-out: LUCIFERASE INFECTION ASSAY - IC50): 8.7 µM
O=C(Nc1ccc(-c2nc3ccccc3[nH]2)cc1)c1cccc(S(=O)(=O)NC2CC2)c1	3	–	IC50 (HEPG2TOX_HILL_SLOPE 2.58, HEPG2TOX_R_SQUARED 0.64, PBLUC_HILL_SLOPE 5.30, 5.83, PBLUC_R_SQUARED 0.508, 0.438, read-out: LUCIFERASE INFECTION ASSAY - IC50): 2.03 µM
CCOc1ccccc1N1CCN(CC(=O)Nc2cc(C)ccc2C)CC1	> 10	> 10	–
CC(C)c1c(C(=O)NNC(=O)c2ccc3ccccc3n2)cnn1-c1ccccc1	3.77	–	IC50 (HEPG2TOX_HILL_SLOPE 12.8, HEPG2TOX_R_SQUARED 0.528, PBLUC_HILL_SLOPE 15.6, PBLUC_R_SQUARED 0.425, read-out: LUCIFERASE INFECTION ASSAY - IC50): 3.28 µM
N#C/C(=C\Nc1cc(C(F)(F)F)cc(C(F)(F)F)c1)S(=O)(=O)c1ccccc1Cl	> 7.26	–	IC50 (FFLUC_HILL_SLOPE 5.48, FFLUC_R_SQUARED 0.621, HEPG2TOX_HILL_SLOPE 2.18, HEPG2TOX_R_SQUARED 0.937, read-out: LUCIFERASE INFECTION ASSAY - IC50): > 7.26 µM
CC(C(=O)Nc1cccc(S(=O)(=O)N2CCOCC2)c1)N(C)Cc1cccc(Cl)c1Cl (stereo not given)	> 10	> 10	–
